In publication PMC11765512 (International Journal of Molecular Sciences, 2025):

Columns and labels:
AH109 (pAD-T+pBD-53) = molecular target: T1, AH109 (pAD-T+pBD-53) (UniProt P02340+P03070); assay: Y2H growth inhibition (MIC) of control strain AH109 (pAD-T+pBD-53); type: cell-based, yeast; settings: SD/-Leu/-Trp/-His/-Ade dropout medium, 48 h
T1 construct: expressed in transfected cells; host or cells: yeast reporter strain AH109 carrying pAD-T and pBD-53
Procedure: The Chemdiv screening compound library used for HTS assay in this research is a combination of synthetic compounds from Enamine (Kyiv, Ukraine) and Life Chemicals Inc. (Burlington, ON, Canada), which can be purchased from Shanghai Topscience Biotechnology Co., Ltd., China. The compounds were stocked at 10 mg/mL in DMSO and used for the screening assays as described. […] Next, 199 μL of the diluted culture and 1 μL of tested compounds (the final concentration was 50 μg/mL) or DMSO were added into each well. […] The final concentrations of the compounds ranged from 100 μg/mL to 0.78 μg/mL with 2-fold dilutions between concentrations.

[1] = system: AH109 (pAD-S-RBD+pBD-ACE2) cells; assay: β-gal activity, ONPG assay in Y2H strain; type: cell-based, yeast
Procedure: The ONPG assay was conducted following the protocol of the β-gal activity quantitative detection kit (GENMED S[…]. USA, Arlington, MA, USA). The principle is based on the chemical reaction that the colorless substrate ONPG can be hydrolyzed by β-gal to generate o-nitrophenol (ONP) with a bright-yellow appearance. Briefly, cells were pelleted in Eppendorf® tubes and resuspended in Z-buffer. Chloroform and 0.2% SDS were added to the cells in the tubes and mixed by briefly vortexing, followed by incubation at 28 °C for 5 min. Next, the ONPG solution was added for further incubation. The reaction was terminated after 10 min for p53-T and after 25 min for all other samples by the addition of chilled Na2CO3. Absorbance was recorded at 420 nm. Results were normalized against the cell density and incubation time using the following formula: U=OD420sample−OD420blank/OD600×t×V
Here, ‘t’ represents the incubation time duration, measured in min, while ‘V’ denotes the volume of the cell cultures utilized for the assay, expressed in mL. The experiments were repeated three times.

[2] = system: SARS-CoV-2 pseudovirus entry into HEK-293T-hACE2 cells; assay: microbe, parasite or virus in culture; type: cell-based
Vero cells = assay: CCK-8 cytotoxicity, Vero; type: cell-based, African green monkey; settings: for Survival Rate (%) Vero: 50 μg/mL, 48 h, CCK-8
Procedure: (§1) African green monkey kidney cells (Vero), Human Hepatocellular Carcinoma Cells (Huh-7), and Human Embryonic Kidney 293T (HEK-293T) cells were maintained in our laboratory. Cells were cultured in Dulbecco’s Modified Eagle’s Medium (DMEM, Hyclone, Logan, UT, USA) containing 10% fetal bovine serum (FBS, Gibco, Waltham, MA, USA) at 37 °C under 5% CO2 in a humidified environment.
(§2) The cytotoxicity of compounds against Vero, Huh-7, and HEK-293T cells was detected using the Cell Counting Kit-8. Briefly, the target cells were cultured at a density of 8000 cells per well in a 96-well plate containing DMEM enriched with 10% FBS. The cells were allowed to attach overnight, and the medium was replaced with a fresh serum-free DMEM containing 50 µg/mL of compounds. The cell viability was measured at 48 h post-drug treatment by the addition of the CCK-8 reagent (Biosharp, Hefei, Anhui, China), followed by incubation for 4 h. Finally, the absorbance of the cell culture was measured at 450 nm using a microplate reader (PerkinElmer, Waltham, MA, USA). The background absorbance of the blank media was also measured and subtracted from the sample reading. This experiment was repeated 3 times for each group. The obtained results were normalized to that of the control sample, which represented a cell viability of 100%.

HEK-293T cells = assay: CCK-8 cytotoxicity, HEK-293T; type: cell-based, Human; settings: for Survival Rate (%) HEK-293T: 50 μg/mL, 48 h, CCK-8
Procedure: as §1, §2

Huh-7 cells = assay: CCK-8 cytotoxicity, Huh-7; type: cell-based, Human; settings: for Survival Rate (%) Huh-7: 50 μg/mL, 48 h, CCK-8
Procedure: as §1, §2

[3] = system: SARS-CoV-2 S-mediated cell–cell fusion (HEK-293T/SARS-CoV-2-S/EGFP with Vero); type: cell-based
SARS-CoV-2 S-RBD = SARS-CoV-2 S-RBD (Severe acute respiratory syndrome coronavirus 2, UniProt P0DTC2); assay: biochemical; type: binding
ACE2 = ACE2 (Homo sapiens, UniProt Q9BYF1); assay: SPR binding to immobilised ACE2
ACE2-S-RBD interaction = ACE2-S-RBD interaction (Severe acute respiratory syndrome coronavirus 2, UniProt P0DTC2); type: binding, SARS-CoV-2
S-RBD+ACE2 complex = S-RBD+ACE2 complex (Severe acute respiratory syndrome coronavirus 2, UniProt P0DTC2); parameters: species or system SARS-CoV-2
[4] = Severe acute respiratory syndrome-related coronavirus, 18 h, read-out: Inhibition rate of pseudovirus entry

T1 sequence (P03070 87-708 limits assumed): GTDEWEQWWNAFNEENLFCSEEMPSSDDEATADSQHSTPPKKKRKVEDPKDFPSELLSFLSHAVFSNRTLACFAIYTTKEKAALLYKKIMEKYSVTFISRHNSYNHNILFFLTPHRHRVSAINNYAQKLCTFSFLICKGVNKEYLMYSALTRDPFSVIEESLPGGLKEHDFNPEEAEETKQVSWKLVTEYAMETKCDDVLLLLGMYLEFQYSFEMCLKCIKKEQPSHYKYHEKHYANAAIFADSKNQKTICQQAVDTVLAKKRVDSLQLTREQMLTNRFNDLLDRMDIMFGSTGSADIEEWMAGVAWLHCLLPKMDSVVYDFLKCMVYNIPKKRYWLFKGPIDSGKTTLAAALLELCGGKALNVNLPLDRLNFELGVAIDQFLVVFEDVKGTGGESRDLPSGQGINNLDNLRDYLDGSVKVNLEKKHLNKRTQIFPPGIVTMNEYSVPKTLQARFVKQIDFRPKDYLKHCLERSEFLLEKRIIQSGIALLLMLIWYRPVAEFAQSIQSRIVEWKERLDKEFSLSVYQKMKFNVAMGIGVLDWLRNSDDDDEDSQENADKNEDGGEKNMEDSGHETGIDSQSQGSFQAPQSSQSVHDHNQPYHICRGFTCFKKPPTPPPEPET
T1 sequence (P02340 72-390 limits assumed): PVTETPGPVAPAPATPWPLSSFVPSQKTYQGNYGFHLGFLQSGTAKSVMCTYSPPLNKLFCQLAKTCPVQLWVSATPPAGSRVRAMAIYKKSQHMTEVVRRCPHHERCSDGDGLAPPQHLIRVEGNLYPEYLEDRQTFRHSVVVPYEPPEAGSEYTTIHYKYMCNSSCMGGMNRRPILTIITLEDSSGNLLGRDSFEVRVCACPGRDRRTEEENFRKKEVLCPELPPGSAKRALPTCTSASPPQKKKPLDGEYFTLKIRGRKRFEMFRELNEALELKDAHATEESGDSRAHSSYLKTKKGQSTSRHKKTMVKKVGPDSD
ACE2, sequence (Q9BYF1 18-805): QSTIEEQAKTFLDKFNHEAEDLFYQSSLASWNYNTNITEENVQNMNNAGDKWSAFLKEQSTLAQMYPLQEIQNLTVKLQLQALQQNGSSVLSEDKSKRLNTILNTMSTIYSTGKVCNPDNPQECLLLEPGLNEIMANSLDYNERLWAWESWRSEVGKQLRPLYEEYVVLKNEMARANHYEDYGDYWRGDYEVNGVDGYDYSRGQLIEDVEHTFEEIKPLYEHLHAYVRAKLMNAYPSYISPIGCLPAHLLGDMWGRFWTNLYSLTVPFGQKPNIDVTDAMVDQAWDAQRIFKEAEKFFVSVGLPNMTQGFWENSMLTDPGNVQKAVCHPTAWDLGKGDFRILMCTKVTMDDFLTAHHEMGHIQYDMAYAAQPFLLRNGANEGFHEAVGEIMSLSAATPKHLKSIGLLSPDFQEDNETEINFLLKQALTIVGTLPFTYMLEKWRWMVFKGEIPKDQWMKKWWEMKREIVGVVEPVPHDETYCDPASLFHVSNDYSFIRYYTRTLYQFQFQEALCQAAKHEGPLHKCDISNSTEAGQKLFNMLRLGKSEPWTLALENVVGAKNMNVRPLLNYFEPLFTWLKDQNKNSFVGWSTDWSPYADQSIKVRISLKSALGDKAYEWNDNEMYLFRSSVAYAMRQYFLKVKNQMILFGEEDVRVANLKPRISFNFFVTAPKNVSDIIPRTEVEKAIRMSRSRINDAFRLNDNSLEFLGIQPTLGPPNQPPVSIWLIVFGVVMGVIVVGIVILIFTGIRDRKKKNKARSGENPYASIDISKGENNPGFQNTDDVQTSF

## O=C(c1ccc(N2CCCCS2(=O)=O)cc1)N1CCN(C(=O)c2ccco2)CC1 [IMB-1C]
AH109 (pAD-T+pBD-53)
  MIC against AH109 (pAD-T+pBD-53): 3.125 μg/mL
[1]
  Concentration showing clear inhibition of β-gal activity: 0.39 µg/mL
[2]
  Inhibition of pseudovirus entry (in words): concentration-dependent inhibition
[2]; [4]
  inhibition at 10 µg/mL: 42.5%
  inhibition at 20 µg/mL: 68.1%
Vero cells
  Survival Rate (%) Vero: 105%
Vero cells; up to 50 µg/mL for 48 h
  Effect on cell proliferation of Vero: did not affect
HEK-293T cells
  Survival Rate (%) HEK-293T: 88%
HEK-293T cells; up to 50 µg/mL for 48 h
  Effect on cell proliferation of HEK-293T: did not affect
Huh-7 cells
  Survival Rate (%) Huh-7: 122%
Huh-7 cells; up to 50 µg/mL for 48 h
  Effect on cell proliferation of Huh-7: did not affect
[3]
  Syncytium formation: somewhat blocked in a dose-dependent manner
SARS-CoV-2 S-RBD
  Kd: 1.06 µM
ACE2
  Kd: 1.11 µM
ACE2-S-RBD interaction
  SPR signal of ACE2 binding to S-RBD: the signal value decreased
S-RBD+ACE2 complex
  Decrease of β-fold content: 9.46%
  Increase of α-helix content: 6.85%
  Secondary Structure Content (%) Random: 32.93%
  Secondary Structure Content (%) α-Helix: 13.12%
  Secondary Structure Content (%) β-Fold: 42.07%
  Secondary Structure Content (%) β-Turn: 15.97%

## Cc1ccc(N(Sc2ccc(Cl)cc2)C2C=CS(=O)(=O)C2)cc1 (stereo not shown) [IMB-4A]
AH109 (pAD-T+pBD-53)
  MIC against AH109 (pAD-T+pBD-53): 12.5 μg/mL
[1]
  Concentration showing clear inhibition of β-gal activity: 6.25 µg/mL
[2]
  Inhibition of pseudovirus entry (in words): could not be observed
Vero cells
  Survival Rate (%) Vero: 71%
HEK-293T cells
  Survival Rate (%) HEK-293T: 18%
Huh-7 cells
  Survival Rate (%) Huh-7: 25%

## CC(C)CCC[C@@H](C)[C@H]1CC[C@H]2[C@@H]3CC[C@H]4C[C@@H](O[C@@H]5O[C@H](COS(=O)(=O)O)[C@@H](O[C@H]6O[C@H](COS(=O)(=O)O)[C@@H](O[C@H]7O[C@H](COS(=O)(=O)O)[C@@H](O[C@H]8O[C@H](COS(=O)(=O)O)[C@@H](OS(=O)(=O)O)[C@H](OS(=O)(=O)O)[C@H]8OS(=O)(=O)O)[C@H](OS(=O)(=O)O)[C@H]7OS(=O)(=O)O)[C@H](OS(=O)(=O)O)[C@H]6OS(=O)(=O)O)[C@H](OS(=O)(=O)O)[C@H]5OS(=O)(=O)O)CC[C@]4(C)[C@H]3CC[C@]12C [Pixatimod, reference compound]
AH109 (pAD-T+pBD-53)
  MIC against AH109 (pAD-T+pBD-53): 6.25 μg/mL
